Assay results taken from patent US11408900B2, “Secreted P-glycoprotein is a non-invasive biomarker of chronic rhinosinusitis” (Massachusetts Eye and Ear Infirmary, priority 2016, dated 2022).

What was measured:
P-gp = P-gp (Homo sapiens, UniProt P08183); conditions: cited from earlier work
HSNECCs = assay: Epithelial cytokine secretion (IL-6, IL-8, TSLP) by ELISA after exosome exposure with or without Zosuquidar; assay type: cell-based, human; conditions: 0.625 μM Zosuquidar, CRSwNP relative to control
Procedure: Control wells were those exposed to vehicle control alone. Following exposure, the media was collected from each well. Cytokine concentrations for TSLP (Thymic Stromal Derived Lymphopoietin), Interleukin (IL)-6, and IL-8 were determined by ELISA according to the manufactures guidelines (eBioscience, San Diego, Calif.). All secreted cytokine concentrations were normalized to total protein concentrations using the Micro BCA Protein Assay Kit (Pierce, Rockford, Ill.).

[1] = test system: healthy patient derived epithelial cell cultures (HSNECCs); assay: Calcein AM P-glycoprotein activity assay after recombinant P-gp exposure; assay type: cell-based, human; conditions: 24 hours, n=7
Procedure: (§1) HSNECCs from 7 control patients and 6 CRS patients were grown as previously described^8. Briefly, mucosal samples were washed and digested in Pronase for 90 minutes at 37° C. Cell suspensions were separated from particulate matter by centrifugation and resuspended in bronchial epithelial growth media (BEGM). Cells were plated for 2 hours on standard tissue culture plates to remove contaminating fibroblasts. Cells were then expanded for 3-5 days on human collagen type IV-coated (Collagen from human placenta, Bornstein and Traub Type IV, Sigma Aldrich, St. Louis, Mo.) 75 cm^2 dishes (Corning Life Sciences, Corning, N.Y.). […]
A calcein AM assay was performed to determine whether the interpolated P-gp was functional following 24 hours of recombinant P-gp exposure as described above. […] After 15 minutes, each well was washed 3 times with cold phosphate buffered saline and the calcein fluorescence within each well was quantified using a spectrophotometer (Molecular Devices SpectraMax M5, Sunnyvale, Calif.) at an excitation and emission wavelength of 494 nm and 517 nm, respectively. A decrease in fluorescence was considered an indication of increased P-gp function as previously described^4.

[2] = test system: healthy patient derived epithelial cell cultures (HSNECCs); assay: Quantitative fluorescent immunocytochemistry for membranous P-gp (CTCF) after recombinant P-gp exposure; assay type: cell-based, human; conditions: 24 hours
Procedure: as §1
Fluorescent staining intensity was quantified according to previously described techniques^9. Briefly, 20× fields were chosen and images were analyzed in Image J v1.49t. The cells and 3 background areas were circled in Image J using the free hand sections tool and the integrated density, area of selected cell, and mean fluorescence of the backgrounds were measured using the region of interest (ROI) manager. The corrected total cell fluorescence (CTCF) was calculated as the integrated density−(area of selected cell×mean fluorescence of background readings). […]

Chain of P-gp (P08183 whole entry): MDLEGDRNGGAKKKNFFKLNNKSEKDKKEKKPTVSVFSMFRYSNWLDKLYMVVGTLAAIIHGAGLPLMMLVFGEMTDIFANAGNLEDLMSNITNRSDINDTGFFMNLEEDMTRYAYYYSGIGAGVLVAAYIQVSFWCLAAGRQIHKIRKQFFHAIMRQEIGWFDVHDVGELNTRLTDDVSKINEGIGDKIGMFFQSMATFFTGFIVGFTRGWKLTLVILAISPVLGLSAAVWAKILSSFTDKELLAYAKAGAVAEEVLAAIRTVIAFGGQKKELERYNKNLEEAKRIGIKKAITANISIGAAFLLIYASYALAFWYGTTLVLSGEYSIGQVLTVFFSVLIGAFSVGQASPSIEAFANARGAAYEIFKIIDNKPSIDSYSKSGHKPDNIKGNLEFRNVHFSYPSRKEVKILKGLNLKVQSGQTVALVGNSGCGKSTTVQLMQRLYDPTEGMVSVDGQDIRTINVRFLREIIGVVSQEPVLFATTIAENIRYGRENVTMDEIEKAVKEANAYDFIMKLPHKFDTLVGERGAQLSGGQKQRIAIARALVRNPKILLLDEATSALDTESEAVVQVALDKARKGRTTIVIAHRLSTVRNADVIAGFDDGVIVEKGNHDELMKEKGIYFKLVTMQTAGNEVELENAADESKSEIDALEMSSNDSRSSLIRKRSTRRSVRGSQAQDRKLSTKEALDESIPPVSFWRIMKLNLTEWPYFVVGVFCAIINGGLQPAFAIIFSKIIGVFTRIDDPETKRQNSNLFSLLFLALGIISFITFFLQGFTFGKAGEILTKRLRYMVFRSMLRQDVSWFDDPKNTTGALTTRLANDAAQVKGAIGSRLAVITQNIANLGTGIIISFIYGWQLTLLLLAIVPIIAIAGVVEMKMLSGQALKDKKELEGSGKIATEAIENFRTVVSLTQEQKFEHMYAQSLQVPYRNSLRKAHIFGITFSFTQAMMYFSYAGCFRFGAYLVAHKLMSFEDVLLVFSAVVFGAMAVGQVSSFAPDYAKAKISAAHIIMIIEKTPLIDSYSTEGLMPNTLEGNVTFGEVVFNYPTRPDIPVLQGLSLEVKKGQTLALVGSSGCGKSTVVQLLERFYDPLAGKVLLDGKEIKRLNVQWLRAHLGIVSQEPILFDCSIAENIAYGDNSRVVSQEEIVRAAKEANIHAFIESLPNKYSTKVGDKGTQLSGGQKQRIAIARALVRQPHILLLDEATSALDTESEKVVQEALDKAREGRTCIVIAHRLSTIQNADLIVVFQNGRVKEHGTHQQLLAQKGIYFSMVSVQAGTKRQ

In the case of `CCOC/C=C/c1ccc(-c2nc(-c3ccc(NC(C)C)cc3)c(-c3ccc(NC(C)C)cc3)[nH]2)cc1` [OC144093, 4-[2-[4-[(E)-3-ethoxyprop-1-enyl]phenyl]-4-[4-(propan-2-ylamino)phenyl]-1H-imidazol-5-yl]-N-propan-2-ylaniline], the “potency relative to the first and second-generation inhibitors” value (P-gp) is listed as “about 10 fold”.
For `COc1cc2c(cc1OC)CN(CCc1ccc(NC(=O)c3cc(OC)c(OC)cc3NC(=O)c3cnc4ccccc4c3)cc1)CC2` [XR9576, N-[2-[[4-[2-(6,7-Dimethoxy-3,4-dihydro-1H-isoquinolin-2-yl)ethyl]phenyl]carbamoyl]-4,5-dimethoxyphenyl]quinoline-3-carboxamide], the “potency relative to the first and second-generation inhibitors” value (P-gp) is listed as “about 10 fold”.
For `Cl.Cl.Cl.O[C@@H](COc1cccc2ncccc12)CN1CCN([C@@H]2c3ccccc3[C@@H]3[C@H](c4ccccc42)C3(F)F)CC1` [Zosuquidar, (2R)-1-{4-[(1aR,6r,10bS)-1,1-Difluoro-1,1a,6,10b-tetrahydrodibenzo[a,e]cyclopropa[c]cyclohepten-6-yl]piperazin-1-yl}-3-(quinolin-5-yloxy)propan-2-ol,trihydrochloride], the “effect on exosome induced increase in IL-6 secretion” value (HSNECCs) was “abrogated” and the “effect on exosome induced increase in IL-8 secretion” value (HSNECCs) was “abrogated”.
With “recombinant human P-gp: recombinant human P-glycoprotein (USCN Life Sciences Inc.)” the mean calcein fluorescence ([1]; 100 ng/mL dose) was 123.11+/−42.16, the mean calcein fluorescence ([1]; 2000 ng/mL dose) was 82.03+/−43.69 and the “CTCF (corrected total cell fluorescence) of P-gp staining” value ([2]; 2000 ng/mL recombinant human P-gp, n=7) was 1.34+/−1.85. The “change in CTCF of P-gp staining” value ([2]; 100-2000 ng/mL exogenous recombinant human P-gp) was “dose dependent increase”.
